Test results reported in US20090258824A1, “Amyloid beta receptor and uses thereof” (priority 2005, published 2009).

Test system: cultured cortical neurons
Test: Calcium imaging (Fluo-4) in cultured cortical neurons
Format: cell-based, rat (Sprague Dawley)
Conditions: antagonist co-applied with Aβ*56
Procedure: Cultured neurons. Cultures of cortical neurons from P1 Sprague Dawley rat pups were prepared according to previously published protocols (Dubinsky, J Neurosci 13, 623-631 (1993)). Dissections of cortical mantels excluded meninges, hippocampus, septal regions, and basal ganglia. […]
Size-exclusion chromatography (SEC). […] Fractions of 500 μl of eluate in 50 mM Ammonium Acetate, pH 8.5, were diluted 1:100 or 1:750 in neurophysiology experiments, or were concentrated using a vacuum system (VacuFuge™, Brinkmann-Eppendorf) and analyzed by silver staining.
Calcium imaging. […] Calcium indicator dye fluorescence was monitored with 488 nanometer (nm) excitation, a 500 nm long-pass barrier filter and confocal microscopy (Odyssey scanner, Noran, Middleton, Wis.). […] To quantify neuronal Ca^2+ responses, Ca^2+ fluorescence was measured from single neurons or clusters of neurons. Baseline fluorescence was normalized to one and the area between the curve and the baseline calculated using Origin software analysis routines (OriginLab Corporation, Northampton, Mass.).

Compound | effect on the Aβ*56-induced increase in Ca2+ signal
CCC(N)(C(=O)O)c1ccc(C(=O)O)cc1 (racemic) [E4CPG, (RS)-α-Ethyl-4-carboxyphenylglycine] | failed to block
O=C(O)C1CN(CCCP(=O)(O)O)CCN1 (racemic) [CPP, (+/−)-3-(2-carboxypiperazin-4-yl)-propyl-1-phosphonic acid] | completely abolished
